What was measured:
Test in all cases: relative viability (nuclei count vs DMSO), 5 days (fraction); higher = more cells survive
NCI-H650 = tested on: NCI-H650
How it was run: (§1)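 Lung cancer cell lines in 1536-well plates got either a single drug or a fixed anchor-drug dose together with five library-drug doses (not always all listed) in √10 steps, by pin tool, on the day after seeding. Nuclei were counted after 5 days, and relative viability is the treated-to-vehicle ratio of nuclei counts. Values are medians of duplicate plates.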

NCI-H1734 = tested on: NCI-H1734
How it was run: as §1

PC-3 [JPC-3] = tested on: PC-3 [JPC-3]
How it was run: as §1

RERF-LC-KJ = tested on: RERF-LC-KJ
How it was run: as §1

ABC-1 = tested on: ABC-1
How it was run: as §1

NCI-H1792 = tested on: NCI-H1792
How it was run: as §1

EPLC-272H = tested on: EPLC-272H
How it was run: as §1

201T = tested on: 201T
How it was run: as §1

LCLC-97TM1 = tested on: LCLC-97TM1
How it was run: as §1

NCI-H1915 = tested on: NCI-H1915
How it was run: as §1

NCI-H1355 = tested on: NCI-H1355
How it was run: as §1

LCLC-103H = tested on: LCLC-103H
How it was run: as §1

NCI-H1651 = tested on: NCI-H1651
How it was run: as §1

NCI-H460 = tested on: NCI-H460
How it was run: as §1

HCC-78 = tested on: HCC-78
How it was run: as §1

NCI-H596 = tested on: NCI-H596
How it was run: as §1

LOU-NH91 = tested on: LOU-NH91
How it was run: as §1

NCI-H1993 = tested on: NCI-H1993
How it was run: as §1

NCI-H1793 = tested on: NCI-H1793
How it was run: as §1

C=C1C(=O)O[C@@H](CCCCCCCC)[C@@H]1C(=O)O [C-75] + NC(=O)Nc1cc(-c2cccc(F)c2)sc1C(=O)N[C@H]1CCCNC1 [AZD7762] (partner 0.2 µM)
relative viability (NCI-H650; first compound 0.08 µM): 0.935 | relative viability (NCI-H650; first compound 0.253 µM): 0.796 | relative viability (NCI-H650; first compound 0.8 µM): 1.01 | relative viability (NCI-H650; first compound 2.53 µM): 0.81 | relative viability (NCI-H650; first compound 8 µM): 1.02 | relative viability (NCI-H1734; first compound 0.08 µM): 0.562 | relative viability (NCI-H1734; first compound 0.253 µM): 0.587 | relative viability (NCI-H1734; first compound 0.8 µM): 0.488 | relative viability (NCI-H1734; first compound 2.53 µM): 0.278 | relative viability (NCI-H1734; first compound 8 µM): 0.664 | relative viability (PC-3 [JPC-3]; first compound 0.08 µM): 0.845 | relative viability (PC-3 [JPC-3]; first compound 0.253 µM): 0.801 | relative viability (PC-3 [JPC-3]; first compound 0.8 µM): 0.801 | relative viability (PC-3 [JPC-3]; first compound 2.53 µM): 0.6 | relative viability (PC-3 [JPC-3]; first compound 8 µM): 0.753 | relative viability (RERF-LC-KJ; first compound 0.08 µM): 0.946 | relative viability (RERF-LC-KJ; first compound 0.253 µM): 1.16 | relative viability (RERF-LC-KJ; first compound 0.8 µM): 0.824 | relative viability (RERF-LC-KJ; first compound 2.53 µM): 0.925 | relative viability (RERF-LC-KJ; first compound 8 µM): 1.09 | relative viability (ABC-1; first compound 0.08 µM): 0.736 | relative viability (ABC-1; first compound 0.253 µM): 0.461 | relative viability (ABC-1; first compound 0.8 µM): 0.685 | relative viability (ABC-1; first compound 2.53 µM): 0.672 | relative viability (ABC-1; first compound 8 µM): 0.775 | relative viability (NCI-H1792; first compound 0.08 µM): 0.787 | relative viability (NCI-H1792; first compound 0.253 µM): 0.623 | relative viability (NCI-H1792; first compound 0.8 µM): 0.748 | relative viability (NCI-H1792; first compound 2.53 µM): 0.443 | relative viability (NCI-H1792; first compound 8 µM): 0.554 | relative viability (EPLC-272H; first compound 0.08 µM): 0.23 | relative viability (EPLC-272H; first compound 0.253 µM): 0.257 | relative viability (EPLC-272H; first compound 0.8 µM): 0.188 | relative viability (EPLC-272H; first compound 2.53 µM): 0.196 | relative viability (EPLC-272H; first compound 8 µM): 0.266 | relative viability (201T; first compound 0.08 µM): 0.588 | relative viability (201T; first compound 0.253 µM): 0.687 | relative viability (201T; first compound 0.8 µM): 0.631 | relative viability (201T; first compound 2.53 µM): 0.507 | relative viability (201T; first compound 8 µM): 0.566 | relative viability (LCLC-97TM1; first compound 0.08 µM): 0.248 | relative viability (LCLC-97TM1; first compound 0.253 µM): 0.581 | relative viability (LCLC-97TM1; first compound 0.8 µM): 0.218 | relative viability (LCLC-97TM1; first compound 2.53 µM): 0.254 | relative viability (LCLC-97TM1; first compound 8 µM): 0.833 | relative viability (NCI-H1915; first compound 0.08 µM): 0.716 | relative viability (NCI-H1915; first compound 0.253 µM): 0.683 | relative viability (NCI-H1915; first compound 0.8 µM): 0.739 | relative viability (NCI-H1915; first compound 2.53 µM): 0.621 | relative viability (NCI-H1915; first compound 8 µM): 0.79 | relative viability (NCI-H1355; first compound 0.08 µM): 0.742 | relative viability (NCI-H1355; first compound 0.253 µM): 0.831 | relative viability (NCI-H1355; first compound 0.8 µM): 0.738 | relative viability (NCI-H1355; first compound 2.53 µM): 0.663 | relative viability (NCI-H1355; first compound 8 µM): 0.764 | relative viability (LCLC-103H; first compound 0.08 µM): 0.809 | relative viability (LCLC-103H; first compound 0.253 µM): 0.619 | relative viability (LCLC-103H; first compound 0.8 µM): 0.695 | relative viability (LCLC-103H; first compound 2.53 µM): 0.654 | relative viability (LCLC-103H; first compound 8 µM): 0.814 | relative viability (NCI-H1651; first compound 0.08 µM): 0.431 | relative viability (NCI-H1651; first compound 0.253 µM): 0.511 | relative viability (NCI-H1651; first compound 0.8 µM): 0.358 | relative viability (NCI-H1651; first compound 2.53 µM): 0.374 | relative viability (NCI-H1651; first compound 8 µM): 0.509 | relative viability (NCI-H460; first compound 0.08 µM): 0.685 | relative viability (NCI-H460; first compound 0.253 µM): 0.805 | relative viability (NCI-H460; first compound 0.8 µM): 0.595 | relative viability (NCI-H460; first compound 2.53 µM): 0.555 | relative viability (NCI-H460; first compound 8 µM): 0.706 | relative viability (HCC-78; first compound 0.08 µM): 0.584 | relative viability (HCC-78; first compound 0.253 µM): 0.409 | relative viability (HCC-78; first compound 0.8 µM): 0.579 | relative viability (HCC-78; first compound 8 µM): 0.72 | relative viability (NCI-H596; first compound 0.08 µM): 1.23 | relative viability (NCI-H596; first compound 0.253 µM): 1.12 | relative viability (NCI-H596; first compound 0.8 µM): 0.998 | relative viability (NCI-H596; first compound 2.53 µM): 0.975 | relative viability (NCI-H596; first compound 8 µM): 0.988 | relative viability (LOU-NH91; first compound 0.08 µM): 0.739 | relative viability (LOU-NH91; first compound 0.253 µM): 0.704 | relative viability (LOU-NH91; first compound 0.8 µM): 0.684 | relative viability (LOU-NH91; first compound 8 µM): 0.818 | relative viability (NCI-H1993; first compound 0.08 µM): 0.959 | relative viability (NCI-H1993; first compound 0.253 µM): 0.998 | relative viability (NCI-H1993; first compound 0.8 µM): 0.772 | relative viability (NCI-H1993; first compound 2.53 µM): 0.687 | relative viability (NCI-H1993; first compound 8 µM): 0.685 | relative viability (NCI-H1793; first compound 0.08 µM): 0.478 | relative viability (NCI-H1793; first compound 0.253 µM): 0.645 | relative viability (NCI-H1793; first compound 2.53 µM): 0.293 | relative viability (NCI-H1793; first compound 8 µM): 0.854

Source: the supplement of paper PMC10307832
